Measurements: ChEMBL document CHEMBL4359900 (Eur J Med Chem, 2019)
The source made the active and inactive calls. No cut-off for these calls is given here.

What was measured:
[1] = biological target: T1, 5-hydroxytryptamine receptor 2B (Homo sapiens, UniProt P41595); assay: Agonist activity at recombinant human 5HT2B receptor expressed in Flp-In-293 cells assessed as increase in calcium influx measured for 300 secs by Fluo-4 dye based FLIPR assay; format: cell-based
[2] = biological target: T2, 5-hydroxytryptamine receptor 2A (Homo sapiens, UniProt P28223); assay: Agonist activity at recombinant human 5HT2A receptor expressed in Flp-In-293 cells assessed as increase in calcium influx measured for 300 secs by Fluo-4 dye based FLIPR assay; format: cell-based
T2 sequence (P28223 whole entry): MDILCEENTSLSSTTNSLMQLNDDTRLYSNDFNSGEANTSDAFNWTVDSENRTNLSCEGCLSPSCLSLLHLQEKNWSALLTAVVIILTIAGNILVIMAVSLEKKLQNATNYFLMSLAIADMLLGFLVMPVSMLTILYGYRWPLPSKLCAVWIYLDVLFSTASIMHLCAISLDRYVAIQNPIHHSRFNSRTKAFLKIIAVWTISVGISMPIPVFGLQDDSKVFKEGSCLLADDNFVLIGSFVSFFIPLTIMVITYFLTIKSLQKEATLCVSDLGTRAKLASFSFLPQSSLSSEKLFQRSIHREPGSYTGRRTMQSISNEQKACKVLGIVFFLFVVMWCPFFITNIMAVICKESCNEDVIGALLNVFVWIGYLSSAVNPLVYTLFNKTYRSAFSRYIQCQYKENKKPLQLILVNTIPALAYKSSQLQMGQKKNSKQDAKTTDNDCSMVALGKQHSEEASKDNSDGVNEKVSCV

5-HT2B receptor = 5-HT2B receptor (Homo sapiens, UniProt P41595); assay: Agonist activity at recombinant human 5HT2B receptor expressed in Flp-In-293 cells assessed as increase in calcium influx measured for 300 secs by Fluo-4 dye based FLIPR assay relative to control; format: cell-based; details: Flp-In-293 cells expressing recombinant human 5HT2B receptor
5-HT2B receptor, sequence (P41595 whole entry, canonical isoform): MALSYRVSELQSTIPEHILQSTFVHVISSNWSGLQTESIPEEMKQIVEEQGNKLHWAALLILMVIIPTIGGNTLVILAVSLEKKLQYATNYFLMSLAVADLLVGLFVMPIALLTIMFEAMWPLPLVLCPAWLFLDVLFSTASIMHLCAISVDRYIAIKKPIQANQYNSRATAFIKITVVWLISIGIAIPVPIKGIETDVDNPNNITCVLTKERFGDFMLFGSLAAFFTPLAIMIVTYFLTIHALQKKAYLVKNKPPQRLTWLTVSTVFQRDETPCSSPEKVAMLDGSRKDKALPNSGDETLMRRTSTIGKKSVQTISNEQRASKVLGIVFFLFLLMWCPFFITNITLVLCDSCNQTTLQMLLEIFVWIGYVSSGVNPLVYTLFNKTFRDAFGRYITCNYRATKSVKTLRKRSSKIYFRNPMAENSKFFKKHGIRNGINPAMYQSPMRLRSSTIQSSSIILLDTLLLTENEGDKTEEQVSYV

[3] = biological target: T3, 5-hydroxytryptamine receptor 2C (Homo sapiens, UniProt P28335); assay: (§1) Agonist activity at recombinant human unedited 5HT2C receptor isoform INI expressed in Flp-In-293 cells assessed as increase in calcium influx measured for 300 secs by Fluo-4 dye based FLIPR assay; format: functional, cell-based
T3 sequence (P28335 whole entry): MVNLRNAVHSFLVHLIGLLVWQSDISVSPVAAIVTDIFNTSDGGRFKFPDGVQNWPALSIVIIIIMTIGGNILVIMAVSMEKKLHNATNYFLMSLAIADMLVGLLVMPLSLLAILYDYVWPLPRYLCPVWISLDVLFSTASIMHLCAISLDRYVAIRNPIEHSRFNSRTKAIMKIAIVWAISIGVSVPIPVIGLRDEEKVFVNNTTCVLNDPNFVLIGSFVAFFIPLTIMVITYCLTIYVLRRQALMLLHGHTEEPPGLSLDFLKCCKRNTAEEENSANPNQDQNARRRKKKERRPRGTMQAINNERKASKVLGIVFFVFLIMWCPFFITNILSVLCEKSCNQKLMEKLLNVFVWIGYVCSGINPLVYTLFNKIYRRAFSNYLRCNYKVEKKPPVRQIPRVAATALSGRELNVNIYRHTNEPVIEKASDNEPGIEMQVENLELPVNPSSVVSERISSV

5-HT2A receptor = 5-HT2A receptor (Homo sapiens, UniProt P28223); assay: (§2) Agonist activity at recombinant human 5HT2A receptor expressed in Flp-In-293 cells assessed as increase in calcium influx measured for 300 secs by Fluo-4 dye based FLIPR assay relative to control; format: cell-based; details: Flp-In-293 cells expressing recombinant human 5HT2A receptor
5-HT2A receptor, sequence (P28223 whole entry, canonical isoform): as the sequence (P28223 whole entry) above

[4] = biological target: T4, 5-hydroxytryptamine receptor 2C (Homo sapiens) (UniProt P28335); assay: Agonist activity at recombinant human unedited 5HT2C receptor isoform INI expressed in Flp-In-293 cells assessed as increase in calcium influx measured for 300 secs by Fluo-4 dye based FLIPR assay relative to control; format: functional, cell-based
T4 sequence (whole entry): T3 sequence (P28335 whole entry)

[5] = biological target: T2, 5-hydroxytryptamine receptor 2A; assay: as §2; format: cell-based; details: flp-in-293, 5 min
[6] = biological target: T1, 5-hydroxytryptamine receptor 2B; assay: Agonist activity at recombinant human 5HT2B receptor expressed in Flp-In-293 cells assessed as increase in calcium influx up to 10 uM measured for 300 secs by Fluo-4 dye based FLIPR assay; format: cell-based; details: flp-in-293, 5 min
[7] = biological target: T2, 5-hydroxytryptamine receptor 2A; assay: Agonist activity at recombinant human 5HT2A receptor expressed in Flp-In-293 cells assessed as increase in calcium influx up to 10 uM measured for 300 secs by Fluo-4 dye based FLIPR assay; format: cell-based; details: flp-in-293, 5 min
Homo sapiens = species on record: Homo sapiens; assay: Selectivity ratio of EC50 for recombinant human 5HT2B receptor expressed in Flp-In-293 cells to EC50 for recombinant human unedited 5HT2C receptor isoform INI expressed in Flp-In-293 cells; format: cell-based
[8] = biological target: Serotonin 2 receptors; 5-HT2a & 5-HT2c (Homo sapiens) (UniProt P28223+P28335); assay: Selectivity ratio of EC50 for recombinant human 5HT2A receptor expressed in Flp-In-293 cells to EC50 for recombinant human unedited 5HT2C receptor isoform INI expressed in Flp-In-293 cells; format: cell-based
Serotonin 2 receptors; 5-HT2a & 5-HT2c (Homo sapiens), sequence (P28223 whole entry, looked up, one chain of several, canonical isoform): as the sequence (P28223 whole entry) above

[9] = biological target: T4, 5-hydroxytryptamine receptor 2C (Homo sapiens); assay: as §1; format: functional, cell-based
[10] = biological target: T4, 5-hydroxytryptamine receptor 2C (Homo sapiens); assay: Agonist activity at recombinant human unedited 5HT2C receptor isoform INI expressed in Flp-In-293 cells assessed as increase in calcium influx up to 10 uM measured for 300 secs by Fluo-4 dye based FLIPR assay; format: functional, cell-based

T1 sequence (P41595 whole entry): as the sequence (P41595 whole entry, canonical isoform) above

Compound | EC50 ([1]; read-out: EC50) [nM] | EC50 ([1]; read-out: pEC50 (converted)) [nM] | EC50 [2] [nM] | Emax at 5 min (5-HT2B receptor) [%] | EC50 [3] [nM] | Emax at 5 min (5-HT2A receptor) [%] | Emax [4] [%] | Emax [5] [%] | Activity [6] | Activity [7] | Ratio EC50 (Homo sapiens) | Ratio EC50 [8] | pEC50 [9] | Activity [10]
NC[C@H]1C[C@]1(F)c1cccc(F)c1 | 2 | 2.29 | 3 | 106 | 3 | 83 | 107 | – | – | – | – | – | – | –
NCC1C(c2ccccc2)C1(F)F (racemic) | 2350 | – | 3680 | 62 | 4430 | 43 | 82 | – | – | – | – | – | – | –
NCCc1c[nH]c2ccc(O)cc12 [SEROTONIN] | – | – | – | – | – | – | – | 100 | – | – | – | – | – | –
NC[C@H]1C[C@]1(F)c1cccc(Cl)c1 | 22 | – | 23 | 91 | 12 | 102 | 110 | – | – | – | – | – | – | –
Cl.NC[C@H]1C[C@]1(F)c1ccccc1Br | – | – | 122 | – | 312 | 38 | 71 | – | Not Active | – | – | – | – | –
CNC[C@H]1C[C@]1(F)c1ccccc1 | 565 | – | 156 | 42 | 291 | 40 | 96 | – | – | – | – | – | – | –
Cc1cccc([C@]2(F)C[C@H]2CN)c1.Cl | – | – | – | – | 5250 | – | 97 | – | Not Active | Not Active | – | – | – | –
NC[C@H]1C[C@]1(F)c1ccccc1 | 10 | – | 10 | 104 | 4.7 | 106 | 98 | – | – | – | 2 | – | – | –
Cc1cccc([C@@]2(F)C[C@@H]2CN)c1.Cl | – | – | 162 | – | 8 | 71 | 96 | – | Not Active | – | – | 20 | – | –
Cl.NC[C@@H]1C[C@@]1(F)c1ccccc1Br | – | – | – | – | – | – | – | – | Not Active | Not Active | – | – | inactive | inactive
COc1ccccc1CNCC1CC1(F)c1cc(F)ccc1OC (racemic) | 285 | – | 31 | 61 | 229 | 92 | 103 | – | – | – | – | – | – | –
COc1ccc(F)cc1C1(F)CC1CN (racemic) | 116 | – | 352 | 79 | 598 | 86 | 90 | – | – | – | – | – | – | –
Cl.NC[C@@H]1C[C@@]1(F)c1cccc(Cl)c1 | – | – | – | – | 1060 | – | 92 | – | Not Active | Not Active | – | – | – | –
COc1ccccc1CNC[C@H]1C[C@]1(F)c1ccccc1 | 363 | – | 320 | 27 | 789 | 83 | 85 | – | – | – | – | – | – | –
NC[C@@H]1C[C@@]1(F)c1ccccc1 | 903 | – | 1830 | 77 | 4110 | 47 | 87 | – | – | – | – | – | – | –
Cl.NC[C@@H]1C[C@@]1(F)c1cccc(F)c1 | – | – | – | – | – | – | – | – | Not Active | Not Active | – | – | inactive | inactive
